{"source": "patent US20220213433A1", "about": "“Three-Dimensional Cross-Linked Scaffolds of Cord Blood Plasma and Their Use” (SANFORD HEALTH, priority 2019, published 2022)", "key": {"[1]": {"experiment": "time to achieve matrix cross-linking of cord blood plasma", "assay_type": "physicochemical, human", "description": "(§1) FIG. 2(a-b). Chemical characterization of cord blood plasma 3D culture model referred as InvitroWOMB (iWOMB).\n(§2) Referring to FIG. 2, cross-linking time was assessed by measuring the time necessary to achieve matrix cross-linking using three relevant cross-linkers of the blood coagulation process including thrombin (0-5 mg/ml) and CaCl2 (0-10 mg/ml). The stabilization effects of preventing fibrin degradation and stability improvement in the scaffold was assessed by surveying an antifibrinolytic agent such as tranexamic acid (0-5 mg/ml). The stability of the scaffold was studied by measuring each scaffold weight at day 0 and again measuring scaffold weight at the conclusion of a 3 week time period."}, "GDM-exposed hu-MSC": {"system": "GDM-exposed hu-MSC", "experiment": "hu-MSC growth assay with metformin, live cells counted by Trypan blue", "assay_type": "cell-based, human", "conditions": "25 μM metformin; 20K cells/well; 72 hour cell counts", "from_the_text": "(§3) FIG. 9(a-d). Precision capabilities. (a) Using a custom human antibody array we measured relative expression of cytokines and growth factors in cord plasma for scaffolds from subjects with Type 1 (T1D), Type 2 (T2D) and gestational diabetes (GDM). Bar graphs represent relative expression by densitometry compared to negative control (membrane background). (b) Hu-MSC from control, T1D, T2D and GDM donors (n=2-3/group) were uniformly plated (50K live cells/well) in stem cell media to collagen-coated, 24-well plates. Trypan blue was used to count live cells every 24 hours and growth was measured and compared. Bar graphs represent fold change from baseline to 72 hours; *p<0.05 by one-way ANOVA with Dunnett post-test, (c) Control hu-MSCs were treated with metformin at increasing doses (0, 25, 50 and 100 μM) and growth was followed as previously described. […] Bar graphs represent the number of cells/well remaining at 72 hours after initial plating of 20K cells/well.\n(§4) To determine whether iWOMB is a useful tool for precision-based assays, we used umbilical cord plasma and hu-MSC from control and diabetic pregnancy to identify diabetes-related differences in proteins in the DME and/or programmed cell fate. […] Using our customized antibody array as detailed above (FIG. 8), we compared relative expression of cytokines and growth factors in cord plasma protein. Just as fibrinogen levels are higher in cord plasma from diabetic pregnancies, so are other factors. Specifically, umbilical cord plasma cytokines (IL-6, IL-10), insulin like growth factor −1 (IGF-1) and hepatocyte growth factor (HGF) from Type 1 diabetic pregnancy (TID) are higher than in plasma from Type 2 (T2D) and gestational diabetes (GDM) (FIG. 9a). […] Every 24 hours cells were detached using 0.25% trypsin/EDTA and live cells were counted using Trypan blue staining and a hemocytometer. Live cells were recorded at each time point for […]. […] Every 24 hours cells were detached using 0.25% trypsin/EDTA and live cells were counted using Trypan blue and a hemocytometer. Live cells were recorded at each time point for 72 hours. […]"}, "control hu-MSC": {"system": "control hu-MSC", "experiment": "hu-MSC growth assay with metformin, live cells counted by Trypan blue", "assay_type": "cell-based, human", "from_the_text": "as §3, §4"}, "[2]": {"experiment": "scaffold stability: scaffold weight at day 0 and after 3 weeks", "assay_type": "physicochemical, human", "conditions": "tranexamic acid in the range of 5 mg/ml (tested 0-5 mg/ml); 3 week period", "description": "as §1, §2"}}, "note": "Entries after “also recorded” stand apart in the source; their conditions may differ."}
{"compound": "thrombin", "values": [{"measurement": "cross-linking time", "setting": "[1]; thrombin 0.5 to 5 mg/ml (tested 0-5 mg/ml)", "result": "fastest crosslinking"}]}
{"compound": "CN(C)C(=N)N=C(N)N", "note": "[metformin]", "values": [{"measurement": "growth of GDM exposed hu-MSC", "setting": "GDM-exposed hu-MSC", "result": "increased growth; also recorded: improves"}, {"measurement": "growth of control hu-MSC", "setting": "control hu-MSC; 25 μM metformin (level reported in umbilical cord blood), 20K cells/well, 72 hours", "result": "does not impair growth"}, {"measurement": "hu-MSC cell growth (number of live cells over time)", "setting": "control hu-MSC; normal/control hu-MSC, metformin 0, 25, 50, 100 uM, live cells counted every 24 h for 72 hours", "result": "impairs hu-MSC growth in a dose dependent manner; also recorded: dose-dependent decline in cell growth"}]}
{"compound": "NC[C@H]1CC[C@H](C(=O)O)CC1", "note": "[Tranexamic acid, tranexamic acid]", "values": [{"measurement": "scaffold stability (prevention of fibrin degradation)", "setting": "[2]", "result": "best improvement in scaffold stability"}]}
{"compound": "[Ca+2].[Cl-].[Cl-]", "note": "[CaCl2, calcium chloride]", "values": [{"measurement": "cross-linking time", "setting": "[1]; CaCl2 1.25 to 5 mg/ml (tested 0-10 mg/ml)", "result": "fastest crosslinking"}]}
